In series [1] the target is T1, Amine oxidase [flavin-containing] A (Homo sapiens, UniProt P21397).
T1 sequence (P21397 whole entry): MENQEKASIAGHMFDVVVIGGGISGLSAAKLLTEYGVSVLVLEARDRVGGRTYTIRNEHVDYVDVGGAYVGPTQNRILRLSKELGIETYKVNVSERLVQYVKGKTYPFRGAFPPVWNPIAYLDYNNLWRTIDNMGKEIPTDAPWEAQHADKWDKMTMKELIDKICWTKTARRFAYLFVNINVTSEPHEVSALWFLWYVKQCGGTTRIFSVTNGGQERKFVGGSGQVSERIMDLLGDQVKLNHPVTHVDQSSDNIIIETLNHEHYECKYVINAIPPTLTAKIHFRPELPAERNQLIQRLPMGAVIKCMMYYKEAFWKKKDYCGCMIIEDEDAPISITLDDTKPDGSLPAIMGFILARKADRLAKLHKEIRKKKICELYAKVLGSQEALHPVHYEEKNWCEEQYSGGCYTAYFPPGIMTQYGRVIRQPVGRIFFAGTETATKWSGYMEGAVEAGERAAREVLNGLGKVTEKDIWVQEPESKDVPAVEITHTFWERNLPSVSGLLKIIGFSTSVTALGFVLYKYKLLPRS
The series can be described thus: Inhibition of human recombinant MAOA expressed in BTI cells at 100 uM. The class given is cell-based.

Series [2] concerns the target T2, Amine oxidase [flavin-containing] B (Homo sapiens, UniProt P27338).
T2 sequence (P27338 whole entry): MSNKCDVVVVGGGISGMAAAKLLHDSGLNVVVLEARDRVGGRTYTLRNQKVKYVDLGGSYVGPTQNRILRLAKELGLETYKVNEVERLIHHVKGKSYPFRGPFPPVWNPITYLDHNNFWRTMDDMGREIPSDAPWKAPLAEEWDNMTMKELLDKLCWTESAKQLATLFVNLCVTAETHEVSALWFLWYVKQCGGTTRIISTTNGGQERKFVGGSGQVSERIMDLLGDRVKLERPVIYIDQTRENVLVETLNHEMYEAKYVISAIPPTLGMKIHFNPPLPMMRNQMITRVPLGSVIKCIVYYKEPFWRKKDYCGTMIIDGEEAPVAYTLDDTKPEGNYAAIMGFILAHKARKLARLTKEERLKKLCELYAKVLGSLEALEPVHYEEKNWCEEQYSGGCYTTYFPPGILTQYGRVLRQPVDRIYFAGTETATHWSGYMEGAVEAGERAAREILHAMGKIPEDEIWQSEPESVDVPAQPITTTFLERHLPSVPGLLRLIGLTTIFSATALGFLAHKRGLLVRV
Briefly: Inhibition of human recombinant MAOB expressed in BTI cells at 100 uM. It is filed as cell-based.

For series [3], the species on record is Homo sapiens. The series can be described thus: Selectivity index, ratio of IC50 for human recombinant MAOA to IC50 for human recombinant MAOB.
For series [4], the target named is T2, Amine oxidase [flavin-containing] B. The series can be described thus: Inhibition of human recombinant MAOB expressed in BTI cells. The class given is cell-based.

In general, IC50 refers to the concentration needed to halve the response being measured.

For `COc1ccccc1-c1cc2cc(C)ccc2oc1=O`, the “inhibition (INH)” value in series [1] was “Not Active”. Moreover, in series [2], the IC50 entry is listed as “Not Active”.

With `COc1ccc(-c2cc3cc(C)ccc3oc2=O)cc1`, the Ratio IC50 in series [3] is greater than 7660. The “inhibition (INH)” value in series [1] is given as “Not Active”.

In the case of `Cc1ccc2oc(=O)c(-c3ccc(O)cc3)cc2c1`, in series [1], the “inhibition (INH)” value was “Not Active”.

As to `COc1cccc(-c2cc3cc(C)ccc3oc2=O)c1`, the IC50 in series [4] stood at 0.803 nM. Also, the Ratio IC50 in series [3] is greater than 125000. Besides, the “inhibition (INH)” value in series [1] is reported as “Not Active”.
